Experimental data reported in patent US20250041311A1, “Compound For Treating or Preventing Vimentin-Mediated Diseases” (Aluda Pharmaceuticals, Inc., priority 2021, published 2025).
pEC50: −log10 of the molar value. Where two headings read alike, the source gives them in different places.

Tests used:
HEK293T cells = assay: Liposome-mediated pMAX-GFP transfection (endocytosis and endosomal trafficking); assay type: cell-based
PANC-1 cells = assay: Transwell cell invasive growth assay; assay type: cell-based, human; conditions: different concentrations of C52, 24 h; more pronounced than in A549
Description: (§1) Cell invasive growth assay: Inoculate 1×10E4 cells suspended in 100 μL serum-free RPMI-1640 medium into each upper chamber of a […] Transwell pre-coated with Matrigel and added with DMSO or […] (Cat.3422, Corning, NY, USA). in different concentrations. Add 600 μL of RPMI-1640 containing 10% FBS to the bottom chamber of each well. Cells in transwell plates were cultured for 24 h. Cells on the upper surface were gently wiped with a moistened cotton swab, while cells that passed through the Matrigel to the lower surface of the membrane were fixed with paraformaldehyde and stained with 0.1% crystal violet. These cells on the lower surface were considered invasive and counted in 5 random fields under an inverted microscope. The number of invasive cells was counted by Image J software.

A549 cells [1] = assay: Transwell cell invasive growth assay; assay type: cell-based, human; conditions: different concentrations of C52, 24 h
Description: as §1

Treg cells = assay: Syngeneic mouse CT26 tumor model (Treg activation and regeneration); assay type: in vivo; conditions: 100 mg/kg C52 oral QD
Description: BALB/c mice were subcutaneously inoculated with 1×10E6 CT26 cells. Mice were randomly assigned to each treatment group. The tumor size was measured with a caliper, and the tumor volume was calculated by the following formula: V=length×width 2×1/2. Tumor-bearing mice were orally administered with vehicle or 100 mg/kg […], QD. On the 13th day after tumor inoculation, vehicle- and […]-treated mice were given a single intraperitoneal injection of low-dose (50 mg/kg) cyclophosphamide (Sigma-Aldrich). Mice were euthanized before tumors reached 2.0 cm in longest dimension. Spleen and lymph node samples were collected for flow cytometric analysis.

[2] = test system: 84 selected human cancer-associated proteins in A549 cells; conditions: 3 μM C52 or 5 μM C52 for 48 h
Description: Cell culture: Human non-small cell lung cancer A549 cells, human pancreatic cancer PANC-1 cells, human glioma U87 cells, human liver cancer HUH7 cells and SMMC-7721 cells, and human gastric cancer AGS cells were purchased from ATCC or Stem Cell Bank of Chinese Academy of Sciences (Shanghai, China). Cells were cultured in RPMI1640 medium containing 10% fetal bovine serum (Sigma, USA), 100 U penicillin and 100 μg/ml streptomycin (Gibco, USA) at 37° C. in a humidified atmosphere containing 5% CO2.
A total of 200 g of lysate protein was run on one Human XL Tumor Array (R&D Systems, Abingdon, UK). Followed the manufacturer's instructions exactly. The protein chip membrane was covered with plastic film and exposed to X-ray film for 8 minutes. Optical density on exposed X-ray film (hu.q, HQ-320XT, China) was quantified using a transmission mode scanner (EPSON, Beijing, China) and analyzed using Image J software.

Huh7-NC12 cells = assay: PrestoBlue cell viability of liver cancer cells
A549 cells [3] = assay: Wound healing assay; assay type: cell-based, human; conditions: different concentrations of C52, 48 h, dose-dependent
Description: Wound healing assay: Cells were seeded in 6-well plates containing complete medium and cultured at 37° C. in a humidified air environment containing 5% CO2. […] […] The wound area and migrated cells within the wound area were photographed using a phase-contrast microscope. The wound area was measured using Image J software.

With O=C(Nc1ccc(F)cc1)Nc1ccc(Nc2nc(/C=C/c3ccccc3)nc(N3CCOCC3)n2)cc1 [Compound C52] the “inhibition of GFP expression (maximum)” value (HEK293T cells; C52 added 4 h after transfection, at 0.316 μM) was “approximately 40%”, the pEC50 (HEK293T cells; C52 after transfection, read-out: EC50 for inhibition of endosomal trafficking) was 7.09 and the pEC50 (HEK293T cells; C52 before transfection, read-out: EC50 for inhibition of endocytosis) was 7.01. For the same compound, the pEC50 (HEK293T cells; C52 during entire transfection period, read-out: EC50 for inhibition of the whole process) was 7.35, the “inhibition of GFP” value (HEK293T cells; C52 just before transfection only, at 0.316 μM) was “approximately 15%” and the “inhibition of GFP (maximum)” value (HEK293T cells; C52 just before transfection only, at 10 μM) was “approximately 40%”. The “maximum inhibition rate of GFP expression” value (HEK293T cells; C52 present throughout the transfection, at 0.316 μM) was “about 50%”, the “migratory ability (Transwell)” value (PANC-1 cells) was “hindered the migratory ability” and the “migratory ability (Transwell)” value (A549 cells [1]) was “hindered the migratory ability”. For the same compound, the “tumor growth vs vehicle-treated control mice” value (Treg cells; BALB/c mice with CT26 tumors) was “grow faster”, the “regeneration of Treg in lymph nodes” value (Treg cells; day 29, 16 days after low-dose cyclophosphamide) was “significantly increased” and the “effect on protein levels of vimentin and other signaling molecules involved in cell proliferation” value [2] was “little or no effect”. The cytotoxicity (Huh7-NC12 cells; 48 h, highest concentration 10,000 nM, high concentrations 3,160 and 10,000 nM) was “not cytotoxic”, the survival rate (Huh7-NC12 cells; after two days of treatment) was “about 90%” and the “toxicity to Huh7-NC12 cells” value (Huh7-NC12 cells; high concentrations (>3160 nM)) was “not toxic”. The “closure rate of the gap size” value (A549 cells [3]) was “significantly decreased”.
